The text below walks through data of patent publication US6593372B2, “Therapeutic uses for nitric oxide inhibitors” (Cold Spring Harbor Laboratory, priority 1996, dated 2003).

Holding throughout (format): in vivo
Assay [1] has as its system BM cells. In words: Hematopoietic markers in BM cells of irradiated mice after injection of NOS inhibitors. The conditions noted are these: 7-10 days after transplantation. The procedure:
To study the maturation of hematopoietic cells in the bone marrow of the irradiated recipient mice, the animals were treated as described above and the BM cells from the demurs of syngeneic donors were injected intravenously (10^5 BM cells per mice) in the recipients.
The BM cells were tested for the presence of various growth factor receptors which serve as markers of the differentiation stage and indicate the presence of stem cells and multipotent percursor cells. The BM preparations were tested for cells expressing receptors to HSF (ligand of c-kit), GM-CSF, G-CSF and IL-3.

The test system of assay [2] is transplanted BM cells, spleen colonies. In words: Hemopoietic colonies in spleens of irradiated mice after BM transplantation and injection of NOS inhibitors (erythroid differentiation). The conditions noted are these: 9-10 days after transplantation. The procedure:
To study the formation of cell of the erythroid lineage in the spleen of the irradiated recipient mice, the animals (females of F1 CBA×C57B1 hybrids weighing 22-24 g) were treated with 750 cGy total body irradiation within 3-4 hours before transplantation. This dosage was tested to be enough for complete suppression of hematopoiesis in the irradiated recipient animals. BM cells were flushed from the femurs of syngeneic donors and injected intravenously (10^5 BM cells per mice) in the recipients. The animals received twice a day injections of 100 mg/kg of L-NAME and D-NAME and 10 mg/kg of ETU for 7-10 days. Mice were analyzed 9-10 days after transplantation.
In contrast, when animals were treated with NOS inhibitors after BM transplantation, most of the colonies in the spleen contained undifferentiated blast cells (up to 85% of blast cells colonies and mixed blast erythroid cells colonies). Erythroid colonies comprised only 15% of the total number of colonies, and the megakaryocyte and granulocyte colonies were not detectable. The results were similar with two structurally unrelated NOS inhibitors, confirming the specificity of their action. Thus, prolonged treatment of recipient mice after BM transfer with NOS inhibitor, reversed the ratio of blast cells-containing colonies to the erythroid cells-containing colonies almost 16 fold, effectively preventing erythroid differentiation.

Assay [3] concerns transplanted BM cells, membrane colonies. In words: Hemopoietic colonies on cellulose acetate membranes in the peritoneal cavity of irradiated mice (myeloid differentiation). The note with it: 7-8 days. The procedure: To study the formation of cells of the myeloid lineage, cellulose acetate membranes were implanted in the peritoneal cavity of mice. After 7 days, when a layer of fibroblasts had covered the membranes, the mice were irradiated as described above. BM cells from syngeneic donors were injected (10^5 BM cells per mice) in the peritoneal cavity of the recipients. Animals received injections of NOS inhibitors as described above. Membranes with growing colonies were isolated and analyzed 7-8 days later.
The differentiation status of the colonies in the spleen was evaluated by morphological criteria, myeloperoxidase reaction, and by immunohistochemical tests for the presence of receptors to various cytokines, which are present only at specific stages of the myeloid cells' maturation. […] A much smaller fraction contained undifferentiated blasts cells (6%), and a very small fraction of colonies contained erythroid cells (1.3%). In contrast, when animals were treated with NOS inhibitors after BM transplantation, most of the colonies on the membranes (up to 85%) contained and undifferentiated blasts cells. Colonies with differentiated cells of the granulocyte lineage comprised only 15.6% of the total number of colonies, and a negligible fraction of the colonies (<0.5%) contained erythroid cells. The results were similar with two structurally unrelated NOS inhibitors, confirming the specificity of their action. Thus, prolonged treatment of recipient mice after BM transfer with NOS inhibitor, reversed the ratio of blast cells-contiaing colonies to the granulocytic colinies almost 80-fold, effectively preventing myeloid differentiation.

Assay [4] relates to Drosophila melanogaster larvae. In words: Adult fly phenotype (leg segment hypertrophy) after injection of NOS inhibitors into third instar larvae. The note with it: adults after injection of late third instar larvae. The procedure:
Chemicals were dissolved in Schneider's solution at concentrations of 0.1 M for L-NAME and D-NAME and 0.01M for ETU and mixed with Freund's adjuvant (Sigma) in 1:3 ratio. Amounts of 5-10 nl were microinjectd in staged late third instar using a glass needle.
To test this hypothesis, NOS activity was inhibited by injecting specific NOS inhibitors in the developing larvae at the end of the third instar, several hours before metamorphosis. Most of the larvae completed metamorphosis successfully, giving rise to adult flies within the normal time frame. The resulting adults differed from normal flies in many respects, the most dramatic being enlargements of the appendages and other structures of the fly body. The changes included a) hypertrophy of the demur, tibia and the segments of the tarsus; b) overgrowth of the tissues originating from the genital discs; in extreme cases, these cells contributed to more than one-quarter of the fly body; c) and increase of the overall surface of the wings; d) overgrowth of the cells of tergites and sternites; e) hypertrophy of the humerus; f) occasional duplications of some areas of the eye; g) occasional realformation of genital structures, legs and eyes; and h) occasional ectopic formation of misplaced body structures.
The changes were most profound in, and most often affected the legs of, the adults. […]

In the case of `COC(=O)[C@H](N)CCCN=C(N)N[N+](=O)[O-]` [D-NAME, D-nitroarginine methyl ester], the “c-kit positive BM cells” value in assay [1] (control 2%) is given as 7%. Also, the “IL-3-R positive BM cells” value in assay [1] (control 7%) is 12%. Besides, in assay [1] (control 18%), the “GM-CSF-R positive BM cells” value is recorded as 16%. The “G-CSF-R positive BM cells” value in assay [1] (control 24%) was determined as 19%. In assay [2], the “blast cell and erythroid cells colonies” value is recorded as 13%; the erythroid colonies is recorded as more than 60%; the granulocyte colonies is 4%; the megakaryocyte colonies is on record as 7.5%. Also, in assay [2] (injections twice a day), the blast cell colonies is 14%. In assay [3], this molecule came in with a blast cell colonies of 6%, an erythroid colonies of 1.3% and a granulocytic colonies of 92%. Besides, the “increase of diameter of certain leg segments (hypertrophy, third pair of legs)” value in assay [4] is recorded as “not”.
